Where two headings read alike, the source gives them in different places. Marks after values point to notes of the source that are not given here. Blank lines part the entries; values can stand above or below the compound they belong to.
Tests used:
[1] = cited from earlier work
[2] = Mobilization of copper from tissue (Studies 106, 201, 203); details: Study 106, Study 201 (BC-TTM); Study 203 (SoC)
[3] = in vivo; cited from earlier work
participants with WD = details: for participants considered successfully treated (NCC/NCCcorrected primary endpoint): by Week 24; for participants considered successful (primary endpoint): last assessment of Extension Period
Protocol: This study was conducted in US and European sites. […] A total of 28 participants were enrolled and treated (10 in Cohort 1 [treatment experienced] and 18 in Cohort 2 [treatment naïve or minimally treated]). One participant was enrolled in Cohort 2 but not treated.
NCC levels within or above the normal reference range at enrollment were required. […] Dosing was individualized, guided by NCC levels (adjusted for molybdenum plasma concentration) and safety data. The primary efficacy endpoint was related to the proportion of successful participants, i.e., the proportion of participants who achieved plasma “free” copper control or improvement from baseline.
Due to small sample size and data variability, the median values for the weighted averages of the doses will be cited throughout.
The primary endpoint in study 201 was the change in NCC/NCCcorrected from baseline to Week 24.
In Study 201, 12-hour dense PK/PD samples for plasma total molybdenum and copper were collected on Day 1, Week 12, and Week 24. Plasma samples for assessing “free” copper were also collected at 0, 4, and 8 hours during those visits and assayed for LBC concentrations. For the purpose of comparison across Studies 106 and 201, FIG. 3 has super-imposed LBC/total copper ratios-time profiles within the 12-hour time window after dosing from both studies.

Protocol for healthy participants: Twenty-four participants were enrolled (12 Japanese and 12 non-Japanese). […] Participants were followed 10 days after dosing within each Dosing Period, and a minimum of 14 days (+2 days) separated the dosing periods. PK and PD concentrations were measured over the next several hours for the first day and once daily for the next 9 days. Therefore, Study 106 permits examination of PK and PD profile changes within hours after drug administration.

Compound: NCCNCCNCCN [Trientine, N-[2-(2-aminoethylamino)ethyl]ethane-1,2-diamine]
- Cu-Binding Selectivity [1]: Cu^2+, and other
- Mobilization of Copper from Tissue [2]: No

Compound: CC(C)(S)[C@@H](N)C(=O)O [Penicillamine, (2S)-2-amino-3-methyl-3-sulfanylbutanoic acid]
- Mobilization of Copper from Tissue [2]: No (Study 203)

- dose proportionality of plasma total molybdenum Cmax and AUC (healthy participants; human, in vivo): less than dose-proportionally
- time to maximum plasma molybdenum (Tmax) (healthy participants; human, in vivo): 5 h
- plasma molybdenum anticipated to be in the form of TPCs (healthy participants; in vivo): approximately 96%
- patients with reversible liver function test elevations (participants with WD; in vivo): 39%
Compound: Bis-choline tetrathiomolybdate [BC-TTM]
- time of maximum plasma total copper concentration post dose (healthy participants; 15 mg or 60 mg single dose): 8 to 12 h
- maximum median increase of plasma total copper from baseline (healthy participants; 8-12 hours post dose): 26-34%
- median plasma LBC as % of pre-dose baseline concentration (healthy participants; 12-24 hours post dose, combined ethnicity and dose data): 80-90%
- median plasma LBC nadir as % of pre-dose baseline concentration (healthy participants; 3 hours post dose, combined ethnicity and dose data): 50-70%
- percentage of plasma LBC relative to plasma total copper (AUEC) (healthy participants; after administration, all participants, both ethnicities and doses pooled): 7%
- time at which median plasma LBC returned to baseline (healthy participants; after dose): 10 days
- maximum individual plasma LBC concentration (healthy participants; after single 15 mg dose): 2.79 µM
- maximum individual plasma total copper concentration (healthy participants; after single 15 mg dose): 23.0 µM
- maximum individual plasma LBC concentration (healthy participants; after single 60 mg dose): 2.93 µM
- maximum individual plasma total copper concentration (healthy participants; after single 60 mg dose): 21.7 µM
- delay of maximum plasma total copper after maximum plasma total molybdenum (healthy participants; in vivo): 3 to 7 h
- time at which total copper concentrations had returned to predose baseline (healthy participants; post dose): 240 h
- Cu-Binding Selectivity [1]: Cu^+ and Cu^2+*
- Route of Copper Elimination [3]: Biliary/fecal
- drop of LTC Ratio (LBC/total copper) from baseline (participants with WD; Day 1, 4 hours post dose, weighted average dose 30 mg): ~30%
- nadir drop of LTC Ratio compared to Day 1 pre-dose baseline (participants with WD; Week 24, 4 hours post-dose, weighted average dose 35.8 mg): ~50%
- reduction of mean serum non-ceruloplasmin-bound Cu (NCC) (participants with WD; Week 24 compared with baseline, 28 patients with WD, monotherapy): 72%
- reduction of pre-dose LTC Ratio compared to Day 1 pre-dose baseline (participants with WD; Week 24 pre-dose, weighted average dose 35.8 mg): ~30%
- participants considered successfully treated (NCC/NCCcorrected primary endpoint) (participants with WD; Cohort 1 (treatment experienced)): 90.0%
- participants considered successfully treated (NCC/NCCcorrected primary endpoint) (participants with WD; Cohort 2 (treatment naïve or minimally treated)): 83.3%
- paradoxical neurological worsening upon treatment initiation (participants with WD; in vivo): No paradoxical neurological worsening was observed
- tolerability (participants with WD; in vivo): generally well-tolerated
- participants considered successful (primary endpoint) (participants with WD; Cohort 1): 90.0%
- participants considered successful (primary endpoint) (participants with WD; Cohort 2): 83.3%
- participants considered successful (primary endpoint) (participants with WD; all participants): 85.7%
- Mobilization of Copper from Tissue [2]: Yes (Study 106;

Compound: [Zn] [Zinc, zinc]
- Route of Copper Elimination [3]: Non-absorbed
- Mobilization of Copper from Tissue [2]: No (Study 203)

Source: US20230414654A1, “METHODS OF TREATING COPPER METABOLISM-ASSOCIATED DISEASES OR DISORDERS” (Alexion Pharmaceuticals, Inc., priority 2020, published 2023)
